The results in this text go back to patent US9717751B2, “Chitin or derivatives thereof for the prevention and/or treatment of parasitoses” (LESAFFRE ET COMPAGNIE, priority 2012, dated 2017).

The test system of data set [1] is C. parvum. Description: Preincubation test: C. parvum oocysts preincubated 24 h with compound, then infection of HCT-8 cells. Format: cell-based, Cryptosporidium parvum. To be noted: preincubation 24 h, 500 μg/ml; for Number of sporozoites: single tests; for Number of sporozoites, Mean: triplicate mean; for viability at 500 µg/mL: Cryptosporidium parvum, T+ = 100, read-out: % of viable sporozoites. The method, then: (§1) Two cell models were tested: HCT-8 cells (human ileocecal adenocarcinoma cells) and Caco-2 cells (human colonic adenocarcinoma cells). The Iowa Cryptosporidium parvum strain (Waterborne inc., New Orleans, La., USA) is used for the tests. The infection is carried out on cells at 70%-80% confluence, cultured in a monolayer on collagen-coated coverslips in 24-well plates. The supernatant of the cells in a monolayer is replaced with 3 ml of culture medium to which 1×10^4 C. parvum oocysts are added. After incubation for 3 hours in a humid incubator at 37° C. and 5% CO2, the supernatant is replaced with 3 ml of culture medium and incubated for 48 h in a humid incubator at 37° C., 5% CO2 and 80% humidity. In each well of a plate, 1×10^4 oocysts are brought into contact with 500 μg/ml of paromomycin, chitosan or NAG. The plates are incubated for 24 h in a humid incubator at 37° C. and 5% CO2. The cells are then infected as indicated above. The intracellular oocysts are stained after fixing the cells with methanol. The labeling is carried out using a specific conjugated polyclonal antibody (Sporo-Glo 20×Waterborne inc., New Orleans, La., USA). The coverslips are then mounted on slides. The intracellular oocysts are counted with a fluorescence microscope. On each slide, 6×50 fields randomly chosen over the entire surface area of the slide are counted. The results obtained are a triplicate mean. The data are analyzed by ANOVA. A p-value of less than or equal to 0.05 is considered to be significant. The tested compounds are incubated for 24 h with C. parvum oocysts before the in vitro infection at a dose of 500 μg/ml.

Data set [2] deals with C. parvum. Description: Preincubation test: C. parvum oocysts preincubated 24 h with compound, then infection of Caco-2 cells. To be noted: preincubation 24 h, 500 μg/ml; for Number of sporozoites, Mean: triplicate mean; for viability at 500 µg/mL: Cryptosporidium parvum, T+ = 100, read-out: % of viable sporozoites. Format: cell-based, Cryptosporidium parvum. The method, then:
as §1

In data set [3] the test system is C. parvum. As to the kind of experiment: Direct test: compound added to C. parvum-infected HCT-8 cells. Format: cell-based, Cryptosporidium parvum. To be noted: direct addition, 500 μg/ml; for Number of sporozoites: single tests; for Number of sporozoites, Mean: triplicate mean; for viability at 500 µg/mL: Cryptosporidium parvum, T+ = 100, read-out: % of viable sporozoites. The method, then: (§2) Two cell models were tested: HCT-8 cells (human ileocecal adenocarcinoma cells) and Caco-2 cells (human colonic adenocarcinoma cells).
(§3) The Iowa Cryptosporidium parvum strain (Waterborne inc., New Orleans, La., USA) is used for the tests.
(§4) The infection is carried out on cells at 70%-80% confluence, cultured in a monolayer on collagen-coated coverslips in 24-well plates.
(§5) The supernatant of the cells in a monolayer is replaced with 3 ml of culture medium to which 1×10^4 C. parvum oocysts are added. After incubation for 3 hours in a humid incubator at 37° C. and 5% CO2, the supernatant is replaced with 3 ml of culture medium and incubated for 48 h in a humid incubator at 37° C., 5% CO2 and 80% humidity.
(§6) The culture medium of the infected cells is replaced with 1 ml of culture medium to which the test compound is then added, at a final concentration of 500 μg/ml.
(§7) The plates are incubated for 48 h in a humid incubator at 37° C. and 5% CO2.
(§8) The intracellular oocysts are stained after fixing the cells with methanol. The labeling is carried out using a specific conjugated polyclonal antibody (Sporo-Glo 20×Waterborne inc., New Orleans, La., USA). The coverslips are then mounted on slides. The intracellular oocysts are counted with a fluorescence microscope.
(§9) On each slide, 6×50 fields randomly chosen over the entire surface area of the slide are counted.
(§10) The results obtained are a triplicate mean. The data are analyzed by ANOVA. A p-value of less than or equal to 0.05 is considered to be significant.
(§11) The various compounds are tested at a dose of 500 μg/ml.

Data set [4] deals with C. parvum. As to the kind of experiment: Direct test: compound added to C. parvum-infected Caco-2 cells. Format: cell-based, Cryptosporidium parvum. To be noted: direct addition, 500 μg/ml; for Number of sporozoites: single tests; for Number of sporozoites, Mean: triplicate mean; for viability at 500 µg/mL: Cryptosporidium parvum, T+ = 100, read-out: % of viable sporozoites. The method, then: as §2, §3, §4, §5, §6, §7, §8, §9, §10, §11

Data set [5] has as its system C. parvum. Description: Effect of the compounds on C. parvum development in CMT-93 murine cells. To be noted: CMT-93 cells, 18 μg/ml. It is filed as cell-based, Cryptosporidium parvum. The method, then:
The C. parvum oocysts used were isolated from feces (stools) of calves that had been experimentally infected (by INRA [French National Institute for Agricultural Research] of Tours).
The tests are carried out on cells of the CMT-93 murine line (mycoplasma-free) cultured in complete medium comprising 10% of FCS (Fetal Calf Serum).
Interferon-γ at 10 ng/ml is used as a positive control. This is because partial inhibition of C. parvum multiplication in enterocytes under the action of this cytokine has been described.
The cells of the CMT-93 line are seeded in a proportion of 3.6×10^5 cells per well.
The test compounds are added after 8 h.
After 24 h, the cells are lysed with trypsin and labeled with a fluorescent lectin (VVL-FITC), in order to be able to find the infected cells with a fluorescence microscope. The number of infected cells is found manually.

Another data set deals with CMT-93 cells. Description: Chemokine production by epithelial cells (quantitative RT-PCR). It is filed as cell-based, murine. To be noted: 24 h incubation. The method, then: The tests are carried out on cells of the CMT-93 murine line (mycoplasma-free) cultured in complete medium comprising 10% of FCS (Fetal Calf Serum) or on dendritic cells derived from bone marrow (immature) in the presence of GM-CSF (Granulocyte Macrophage Colony Stimulating Factor) added regularly to the culture for 9 days. Chemokine production by the epithelium or other intestinal cells is important for the recruitment of the inflammatory cells required for protection against cryptosporidiosis in newborns. Chemokine production by epithelial cells is measured by quantitative RT-PCR (quantification by incorporation of Sybr green) after incubation of CMT-93 cells with the various compounds for 24 h.

Where “and” joins values, the source holds several entries; their conditions need not be identical. Equal entries are not always repeated. Structures can show the parent of a compound that is named as a salt.

Take chitosan hydrochloride: the “reduction of parasite development” value amounted to 95.7% in the data set on C. parvum [1] and 97.6% in the data set on C. parvum [2]. Besides, the “% of viable sporozoites” value was determined as 4.3% in the data set with C. parvum [1] (T+ = 100); 2.44% in the data set on C. parvum [2] (T+ = 100); 6.4% in the data set on C. parvum [3] (48 h, T+ = 100); 32.0% in the data set with C. parvum [4] (48 h, T+ = 100). The Number of sporozoites with C. parvum [1] (hydrochloride) is 47 and 52 and 37; in the data set on C. parvum [3] (48 h, hydrochloride), 90 and 66 and 64; in the data set with C. parvum [4] (48 h, hydrochloride) it was 372 and 199 and 276. In addition, the “Number of sporozoites, Mean” value in the data set with C. parvum [1] was determined as 47; in the data set with C. parvum [2], 28; in the data set with C. parvum [3] (48 h), 73; in the data set with C. parvum [4] (48 h) it was 282. Besides, the “effectiveness compared with paromomycin” value in the data set on C. parvum [3] was “more effective than paromomycin”; in the data set on C. parvum [4], “more effective”. The “reduction in parasite development” value in the data set on C. parvum [3] came out at 93.6%; in the data set on C. parvum [4], 68%. The “reduction of parasite multiplication compared with the nontreated control” value in the data set on C. parvum [5] stood at 31%.

In the case of `CC(=O)N[C@H]1C(O)O[C@H](CO)[C@@H](O)[C@@H]1O` (stereo partly drawn) [NAG, N-acetylglucosamine], the viability at 500 µg/mL was 0.99% in the data set with C. parvum [1], 2.61% with C. parvum [2], 11.6% with C. parvum [3] (48 h) and 64.8% with C. parvum [4] (48 h). In addition, the “reduction of parasite development” value with C. parvum [1] is 99.0%; in the data set on C. parvum [2], 97.4%. Moreover, the Number of sporozoites with C. parvum [1] is 12 and 14 and 7; in the data set with C. parvum [2] (single tests), 21 and 39 and 31; in the data set on C. parvum [3] (48 h) it was 172 and 131 and 99; with C. parvum [4] (48 h), 656 and 485 and 337. The “Number of sporozoites, Mean” value in the data set with C. parvum [1] was found to be 11; in the data set with C. parvum [2], 30; in the data set on C. parvum [3] (48 h), 134; in the data set on C. parvum [4] (48 h) it was 571. Besides, the “effectiveness compared with paromomycin” value with C. parvum [3] is “more effective than paromomycin”. Besides, the figures for the “reduction in parasite development” value with C. parvum [3] and in the data set on C. parvum [4] were 88.4% and 35.2%, respectively. Also, the “reduction of parasite multiplication compared with the nontreated control” value in the data set on C. parvum [5] was determined as 43%. The “production of chemokines CXCL10 and CCL20, ranking of the products” value in the data set with CMT-93 cells is recorded as “most effective”.

As to `NC[C@@H]1O[C@H](O[C@H]2[C@@H](O)[C@H](O[C@@H]3[C@@H](O)[C@H](N)C[C@H](N)[C@H]3O[C@H]3O[C@H](CO)[C@@H](O)[C@H](O)[C@H]3N)O[C@@H]2CO)[C@H](N)[C@@H](O)[C@@H]1O` [Paromomycin, paromomycin sulfate, reference compound], the viability at 500 µg/mL with C. parvum [1] worked out at 0.53%; in the data set with C. parvum [2] it was 2.87%; in the data set on C. parvum [3] (48 h), 55.4%; in the data set with C. parvum [4] (48 h) it was 66.4%. Further, the “reduction of parasite development” value with C. parvum [1] came to 99.5%; in the data set on C. parvum [2] it was 97.1%. Moreover, the “Number of sporozoites, Mean” value is recorded as 6 in the data set on C. parvum [1], 33 with C. parvum [2], 191 in the data set with C. parvum [3] (48 h) and 592 in the data set with C. parvum [4] (48 h). The results for the “reduction in parasite development” value with C. parvum [3] and in the data set on C. parvum [4] were 44.6% and 33.6%, respectively. Moreover, the Number of sporozoites in the data set on C. parvum [3] (48 h) was 208 and 178 and 187.

“poly-(N-deacetyl-D-glucosamine) [insoluble chitosan]”: in the data set on C. parvum [5] (nontreated control 50% of infected cells), the infected cells result is “approximately 40%”.
